From ChEMBL document CHEMBL4219057, “Recent Advances of Colony-Stimulating Factor-1 Receptor (CSF-1R) Kinase and Its Inhibitors” (J Med Chem, 2018) come the findings set out here.

pEC50, pIC50: −log10 of the molar value. In brackets after ≈: the same amount, converted by molar mass.

Data set [1] deals with Mus musculus. The experiment in a line: Anti-inflammatory activity in unilateral ureter obstruction-induced C57BL/6 mouse renal inflammation model assessed as reduction in F4/80+ macrophage accumulation in kidney at 40 mg/kg, po via gavage administered at 12 hrs time interval for 7 days starting from end of UUO surgery by […] staining based immunohistochemical analysis relative to control. The format is functional. Particulars: C57BL/6, po.

Data set [2] can be described thus: Aqueous solubility of the compound by turbidity-based assay. The format is physicochemical. Particulars: buffer.
Data set [3] deals with Mast/stem cell growth factor receptor Kit (Homo sapiens, UniProt P10721). Description: Inhibition of KIT (unknown origin) using biotinylated peptide substrate.
Sequence of Mast/stem cell growth factor receptor Kit (P10721 whole entry): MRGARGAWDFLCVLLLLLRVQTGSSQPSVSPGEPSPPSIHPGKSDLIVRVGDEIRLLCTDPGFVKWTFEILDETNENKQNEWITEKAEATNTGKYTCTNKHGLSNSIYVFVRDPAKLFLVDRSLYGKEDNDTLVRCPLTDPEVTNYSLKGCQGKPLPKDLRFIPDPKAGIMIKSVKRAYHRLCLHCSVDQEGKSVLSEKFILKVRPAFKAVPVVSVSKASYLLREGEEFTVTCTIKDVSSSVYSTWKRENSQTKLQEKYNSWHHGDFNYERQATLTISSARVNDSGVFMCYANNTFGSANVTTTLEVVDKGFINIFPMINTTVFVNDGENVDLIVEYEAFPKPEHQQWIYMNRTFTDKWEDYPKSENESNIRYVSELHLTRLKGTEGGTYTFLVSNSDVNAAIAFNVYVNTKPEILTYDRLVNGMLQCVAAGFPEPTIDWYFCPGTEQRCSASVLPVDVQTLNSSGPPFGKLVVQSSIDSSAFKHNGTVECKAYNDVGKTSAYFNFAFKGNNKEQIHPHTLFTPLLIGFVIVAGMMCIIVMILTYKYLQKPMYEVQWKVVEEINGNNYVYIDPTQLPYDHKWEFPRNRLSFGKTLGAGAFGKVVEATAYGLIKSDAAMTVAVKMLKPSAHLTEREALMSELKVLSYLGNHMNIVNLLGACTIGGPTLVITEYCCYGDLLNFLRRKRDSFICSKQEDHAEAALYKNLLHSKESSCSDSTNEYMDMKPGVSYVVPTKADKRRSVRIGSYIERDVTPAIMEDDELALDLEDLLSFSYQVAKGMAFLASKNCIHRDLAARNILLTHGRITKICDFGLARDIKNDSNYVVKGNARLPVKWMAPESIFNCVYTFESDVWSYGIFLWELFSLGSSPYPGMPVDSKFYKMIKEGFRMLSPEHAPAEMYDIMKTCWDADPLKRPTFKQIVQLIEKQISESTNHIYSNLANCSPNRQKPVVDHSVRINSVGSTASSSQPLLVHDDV
For data set [4], the target named is Macrophage colony-stimulating factor 1 receptor (Homo sapiens, UniProt P07333). The experiment in a line: Inhibition of CSF1R (unknown origin) using biotinylated peptide substrate.
Sequence of Macrophage colony-stimulating factor 1 receptor (P07333 whole entry): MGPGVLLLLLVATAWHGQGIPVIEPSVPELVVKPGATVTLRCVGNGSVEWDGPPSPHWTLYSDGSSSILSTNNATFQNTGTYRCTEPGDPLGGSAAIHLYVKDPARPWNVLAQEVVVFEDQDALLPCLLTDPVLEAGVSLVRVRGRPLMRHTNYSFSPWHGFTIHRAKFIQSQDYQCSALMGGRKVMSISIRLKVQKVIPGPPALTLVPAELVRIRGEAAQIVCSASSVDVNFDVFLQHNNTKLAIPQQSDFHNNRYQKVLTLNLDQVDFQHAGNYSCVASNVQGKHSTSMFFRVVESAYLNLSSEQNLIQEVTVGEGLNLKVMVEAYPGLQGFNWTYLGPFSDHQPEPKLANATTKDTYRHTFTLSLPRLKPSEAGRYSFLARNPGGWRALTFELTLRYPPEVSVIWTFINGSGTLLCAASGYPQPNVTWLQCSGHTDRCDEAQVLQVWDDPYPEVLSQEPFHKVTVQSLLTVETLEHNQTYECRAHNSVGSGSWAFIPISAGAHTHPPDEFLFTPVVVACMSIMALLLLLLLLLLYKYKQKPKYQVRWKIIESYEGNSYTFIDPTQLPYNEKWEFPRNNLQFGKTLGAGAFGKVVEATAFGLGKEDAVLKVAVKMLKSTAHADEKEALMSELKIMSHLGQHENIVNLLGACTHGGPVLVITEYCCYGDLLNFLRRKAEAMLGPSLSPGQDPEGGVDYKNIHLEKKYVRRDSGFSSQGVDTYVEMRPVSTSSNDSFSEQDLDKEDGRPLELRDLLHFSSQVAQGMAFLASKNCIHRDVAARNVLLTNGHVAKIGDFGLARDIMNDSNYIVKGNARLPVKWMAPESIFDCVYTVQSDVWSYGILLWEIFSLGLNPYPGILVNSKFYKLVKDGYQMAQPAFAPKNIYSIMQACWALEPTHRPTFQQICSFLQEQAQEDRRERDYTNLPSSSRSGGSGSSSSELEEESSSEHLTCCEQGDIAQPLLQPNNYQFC
For data set [5], the system named is Mus musculus. Description: Inhibition of LPS-induced IL-6 level in serum of Swiss Webster mouse at 40 mg/kg, po via gavage pretreated for 4.15 hrs followed by LPS stimulation measured after 1.5 hrs by ELISA relative to control. The format is functional. In general terms: In an ELISA, binding on a coated surface is turned into a signal by an enzyme label.
Data set [6] concerns Mus musculus. Description: Inhibition of LPS-induced TNFalpha level in serum of Swiss Webster mouse at 40 mg/kg, po via gavage pretreated for 4.15 hrs followed by LPS stimulation measured after 1.5 hrs by ELISA relative to control. Format: functional.
A short description of data set [7]: Tmax in cHL patient at 10 mg administered as single dose. Format: ADME, organism-based. Conditions: human, in vivo.
A short description of data set [8]: Drug uptake in tumor of recurrent GB patient at 1000 mg, po daily after 7 days. Format: ADME, organism-based, Neoplasm. Particulars: human, read-out: Drug uptake.
The test system of a further data set is NFS-60. Description: Antiproliferative activity against mouse M-NFS-60 cells harboring CSF1. The format is functional, cell-based.
A short description of data set [9]: Protein binding in human plasma at 10 uM after 4 hrs by equilibrium dialysis method. Format: ADME, cell-free. Conditions: read-out: PPB (converted). (In equilibrium dialysis only unbound substance equilibrates across the membrane.)

In the case of `FC(F)(F)c1ccc(CNc2ccc(Cc3c[nH]c4ncccc34)cn2)cc1`, the inhibition in vivo – broadly, the percentage by which the read-out fell short of the control – at 40 mg/kg in the data set on Mus musculus [1] worked out at 77%; with Mus musculus [5], 75%; in the data set on Mus musculus [6], 85%. Moreover, the solubility (kinetic) (usually solubility judged after dilution from a stock solution rather than from solid) in data set [2] amounted to 14 µM (≈ 5.35 µg/mL). In addition, the values for the pIC50 in data set [3] and in [4] were 7.80 and 7.55, respectively.

For `CC1(C)CC=C(c2nc(C3CC(C)(C)OC(C)(C)C3)ccc2NC(=O)c2nc(C#N)c[nH]2)CC1` [EDICOTINIB], the Tmax (commonly the time at which the peak concentration occurs) in data set [7] lay within 1 to 3.5 h.

With `FC(F)(F)c1ccc(CNc2ccc(Cc3c[nH]c4ncc(Cl)cc34)cn2)cn1` [PEXIDARTINIB], the concentration at 168 h in [8] turned out to be 5500 ng/g.

`CNC(=O)c1cc(Oc2ccc3nc(N[C@@H]4CCCC[C@@H]4O)sc3c2)ccn1`: the pEC50 (commonly the EC50 on a negative log10 scale, so that one unit is a factor of ten) in the data set on NFS-60 was 6.85. Moreover, the fraction unbound at 4 h, 10 µM in data set [9] was 0.031.

For the compound `COc1cnc2[nH]cc(Cc3ccc(NCc4ccc(C(F)(F)F)cc4)nc3)c2c1`, in [2], the kinetic solubility was 77 µM (≈ 31.8 µg/mL). Further, the negative-log IC50 (pIC50) (usually the negative decadic logarithm of the IC50, by convention in mol/L) in data set [4] is 7.21.

The compound `CNC(=O)c1cc(Oc2ccc3nc(N[C@@H]4CCCC[C@H]4O)sc3c2)ccn1` [SOTULETINIB] had a pEC50 with NFS-60 of 7.15. Further, in [9], the fraction unbound at 4 h, 10 µM is 0.037.
